# Experimental data from patent US11583525B2, “Geranylgeranyltransferase I inhibitor for treatment of a PTEN defective cancer” (H. LEE MOFFITT CANCER CENTER AND RESEARCH INSTITUTE, INC., priority 2017, dated 2023).
# Peptide text beside a SMILES is read from it. * marks the point of attachment. Cbz = O=C(OCc1ccccc1)*
# How the values were obtained:
# IP3R3 = IP3R3 levels and FBXL2 binding in HEK293T cells transfected with Flag-tagged FBXL2 constructs; assay type: cell-based, human
# Method: 24 h post-transfection, cells were treated with MG132 for 3 h before harvesting for immunoprecipitation and immunoblotting as indicated. WCL, whole-cell lysate from untransfected cells. […] After harvesting, cells were lysed, and cell membranes (CM) were isolated and immunoprecipitated with either a normal mouse IgG or an anti-Flag antibody. Subsequently, immunoprecipitates were analysed by immunoblotting as indicated. The results of these experiments (n=2) indicate that FBXL2 is incorporated into a complete SCF ligase that binds its substrate(s) at cellular membranes. […] After harvesting, cells were lysed and cytoplasmic (CYTO) and cell membrane (CM) fractions were isolated and analysed by immunoblotting as indicated. Actin and calnexin are used as markers for cytoplasmic and cell membrane fractions, respectively. This experiment was performed twice. […] 24 h post-transfection, where indicated, cells were treated with MG132 for 3 h before harvesting for immunoprecipitation and immunoblotting. Ned. CUL1, neddylated CUL1. […] The experiment was performed in the presence or absence of MG132 as indicated. Whole-cell lysates were immunoblotted as indicated. The asterisk indicates a non-specific band. This experiment was performed twice. […] P values were calculated by unpaired t-test. Error bars indicate s.e.m. […] Error bars indicate s.e.m. The values represent the ratios between FBXL2 and GAPDH mRNAs. […]
# Ca2+ mobilization = experiment: Cytosolic Ca2+ mobilization measured with aequorin in NHFs in response to ATP; assay type: cell-based, human; details: NHFs re-stimulated with serum for one hour; ATP stimulation
# Method: FIGS. 7A, 7B, 7C, 7D, 7E, 7F, 7G, 7H, and 7I show FBXL2 controls Ca2+ mobilization and Ca2+-mediated apoptosis. […] Quantification of three independent experiments is shown and represented as percentage increase compared to EXP cells, which were set as 100%. P values were calculated by one-way ANOVA and multiple-comparisons test. Error bars indicate s.e.m. […] Quantifications and P value analyses was performed as in a. […] On the left, representative traces. On the right, quantification of three independent experiments. P values were calculated by a one-way ANOVA and multiple-comparisons test. Error bars indicate s.e.m. […] Concentrations of cytosolic (7d) and mitochondrial (7e) Ca2+ were measured with the appropriate aequorin in response to agonist stimulation (ATP). […] On the right, quantifications of three independent experiments. P values were calculated by one-way ANOVA and multiple-comparisons test. […] P values were calculated by unpaired t-test. […] Induction of cell death was evaluated after treatment with H2O2 using automated nuclei count analysis of twenty randomly chosen fields. P values were calculated by one-way ANOVA and multiple-comparisons test. […] Left, representative traces showing concentrations of mitochondrial Ca2+ measured with mitochondrial targeted aequorin. Right, quantification of three independent experiments. P values were calculated by one-way ANOVA and multiple-comparisons test. […]
smiles,measurement,setting,value
CC(C)C[C@@H](C=O)NC(=O)[C@H](CC(C)C)NC(=O)[C@H](CC(C)C)NC(=O)OCc1ccccc1 [MG132] (Cbz-Leu-Leu-Leu-aldehyde),FBXL2-induced decrease in the levels of IP3R3,"IP3R3; HEK293T cells expressing wild-type FBXL2, MG132",this decrease was rescued by MG132 treatment
same,difference in IP3R3 binding between FBXL2(ΔF-box) and wild-type FBXL2,"IP3R3; HEK293T cells, MG132 for 3 h",this difference was abolished by MG132 treatment
same,serum-mediated decrease in Ca2+ mobilization,Ca2+ mobilization,inhibited the serum-mediated decrease in Ca2+ mobilization
Cc1nc[nH]c1CN1CCN(C(=O)N[C@@H](CC(C)C)C(=O)O)[C@@H](Cc2ccccc2)C1=O [GGTi-2418],serum-mediated decrease in Ca2+ mobilization,Ca2+ mobilization,inhibited the serum-mediated decrease in Ca2+ mobilization
